Source: patent US20210059590A1, “IDENTIFICATION OF AND TREATMENT FOR PERSONS AT HIGH RISK FOR DEVELOPING MAJOR DEPRESSIVE DISORDER” (The Trustees of Columbia University in the City of New York, priority 2018, published 2021)
Like-named read-outs stand apart in the source and are kept apart here.

Assay: Plasma free fraction (fP) of the PET tracer
Assay type: in vitro ADME, human
Settings: for fraction unbound: human, plasma
Excerpt: Arterial plasma radioactivity, metabolites, and plasma free fraction (fP) were collected and assayed as previously described (Parsey et al., 2006; Parsey et al., 2000). Unmetabolized parent fraction levels were fit with a Hill function (Wu et al., 2007). The input function was corrected for unmetabolized tracer by multiplying the total plasma counts with the interpolated parent fraction. The metabolite-corrected arterial input function was fit as the combination of a straight line and the sum of three decreasing exponentials, describing the function before and after the peak, respectively.

Percent Free Fraction (Depressed NRM MDD subjects, N=30, mean ± SD): 6.15 ± 1.72%
Percent Free Fraction (Healthy Volunteers (HV), N=51, mean ± SD): 8.10 ± 2.39%
fraction unbound (Depressed NRM MDD subjects, N=30, mean ± SD, read-out: Percent Free Fraction): ~0.062
fraction unbound (Healthy Volunteers (HV), N=51, mean ± SD, read-out: Percent Free Fraction): ~0.08
fraction unbound (High Risk (HR) subjects, N=9, mean ± SD, read-out: Percent Free Fraction): 0.065
fraction unbound (Medication Exposed MDD patients, n=66, off antidepressants at least two weeks, read-out: Plasma free fraction (fp)): 0.07 ± 0.02
fraction unbound (Medication Naïve MDD patients, n=32, read-out: Plasma free fraction (fp)): 0.06 ± 0.02
SMILES: COc1ccccc1N1CCN(CCN(C(=O)C2CCCCC2)c2ccccn2)CC1 [[^11C]WAY-100635, N-[2-[4-(2-methoxyphenyl)-1-piperazinyl]ethyl]-N-2-pyridinylcyclohexanecarboxamide]
